According to patent US10201510B2, “Compositions and methods for treatment of neurological symptoms associated with alcohol-withdrawal and for convulsive seizure” (Oregon Health & Science University, priority 2005, dated 2019):

Legend:
[1] = target: T1, human recombinant monoamine oxidase A (Homo sapiens, UniProt P21397); test: Monoamine oxidase substrate test; format: in vitro ADME; conditions: rat liver mitochondrial membranes and human recombinant monoamine oxidase A and B
T1 sequence (P21397 1-527): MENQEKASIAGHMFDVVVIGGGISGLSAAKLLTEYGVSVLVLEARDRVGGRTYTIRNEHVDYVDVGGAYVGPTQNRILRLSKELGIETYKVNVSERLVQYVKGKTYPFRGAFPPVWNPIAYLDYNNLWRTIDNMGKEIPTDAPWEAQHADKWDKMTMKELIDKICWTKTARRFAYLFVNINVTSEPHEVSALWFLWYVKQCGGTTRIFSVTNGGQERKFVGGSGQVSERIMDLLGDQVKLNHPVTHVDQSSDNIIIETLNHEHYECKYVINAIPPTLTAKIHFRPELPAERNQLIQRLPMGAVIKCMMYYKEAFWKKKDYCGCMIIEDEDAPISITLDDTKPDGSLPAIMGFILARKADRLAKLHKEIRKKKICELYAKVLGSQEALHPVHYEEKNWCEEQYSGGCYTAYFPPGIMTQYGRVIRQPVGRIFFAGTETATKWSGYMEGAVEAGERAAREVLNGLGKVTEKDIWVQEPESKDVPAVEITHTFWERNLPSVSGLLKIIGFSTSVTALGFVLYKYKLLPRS
Text: (§1) Moreover, farnesylamine is likely to be metabolized through pathways different from those involved in farnesol clearance.

[2] = target: T2, smooth muscle voltage-gated, L-type (Cav1.2 or α1C subunit) Ca^2+ channels (Mus musculus, UniProt Q01815); test: KCl-induced contraction in isolated arteries; conditions: FIG. 5 / FIG. 6 (25 μM)
T2 construct: KCl-induced contraction in isolated arteries; from tissue; host or cells: mouse mesenteric arteries
Method: (§2) Contractions obtained after 30 min. incubation with the test compounds (left portion of graph), and after a 60-min. wash-out (right portion of graph).
(§3) To identify compounds with enhanced L-type Ca^2+ channel blocker activity, several compounds were either purchased or synthesized, and then tested for their ability to inhibit: (1) KCl-induced contraction in isolated arteries; (2) KCl-induced Ca^2+ signaling in fura-2 loaded arteries; and (3) KCl-induced Ca^2+ signaling in fura-2 loaded PC12 cells, all using art-recognized methods established in the applicants' laboratories (Roullet, 1993, 1994, 1995, 1997; De Lima, 1999). Arteries express smooth muscle voltage-gated, L-type (Cav1.2 or α1C subunit) Ca^2+ channels, whereas PC12 cells constitutively express the neuronal voltage-gated, L-type (Cav1.3) α1D subunit (Ertel, 2000).

L-type Ca^2+ channel = target: T3, L-type Ca^2+ channel (Mus musculus, UniProt Q01815); test: Reversibility of inhibition of L-type Ca^2+ channel mediated arterial contraction after wash-out
T3 construct: KCl-induced contraction in isolated arteries; from tissue; host or cells: mouse mesenteric arteries
Method: as §2, §1

[3] = system: withdrawal seizures in alcohol-dependent mice; test: Predicted anti-seizure activity; format: in vivo, mouse; parameters: key: la = long-acting; The ++ farnesol activity was arbitrary; conditions: for Predicted anti-seizure activity: long-acting (la): duration flag in brackets
ADH [4] = test: Metabolism / substrate recognition by ADH; format: in vitro ADME
[5] = target: T4, neuronal voltage-gated, L-type (Cav1.3) α1D subunit Ca^2+ channel (Rattus norvegicus, UniProt P27732); test: KCl-induced Ca^2+ signaling in fura-2 loaded PC12 cells; format: cell-based
T4 construct: KCl-induced intracellular Ca^2+ signaling in non-NGF treated PC12 cells loaded with fura-2; endogenous in cells; host or cells: PC12 cells (non-NGF treated)
Text: According to particular aspects of the present invention, the alcohol group is essential for activity. Additionally, the activity of farnesol metabolites on neuronal voltage-gated L-type Ca^2+ channels was investigated. […] The Ca^2+ channel activity is expressed as % inhibition of KCl-induced intracellular Ca^2+ signaling in non-NGF differentiated PC12 cells loaded with fura-2 (see Materials and Methods under Example 2). The assayed molecules are: FPP—farnesyl pyrophosphate; FOH—all-trans farnesol; FCHO—all-trans farnesal; and FCOOH—all-trans farnesoic acid (prepared by Dr. McDougal).
as §3
Ca^2+ channel activity is expressed as % inhibition of KCl-induced intracellular Ca^2+ signaling in non-NGF treated PC12 cells loaded with fura-2.

Storage stability = format: physicochemical; conditions: −20° C., pure form or ethanol solutions (typically 25 mM)
Method: According to the present invention, the synthesis of geranylresorcinol (GR) (4) is based on the condensation of geranyl bromide (1) and 3-hydroxyphenyl benzoate (2), followed by alkaline cleavage of the formed ester (3). The method generates pure GR with an overall yield of 40%. The compound is stable when stored at −20° C. either in its pure form or in ethanol solutions (typically prepared at 25 mM). Long-term storage may be associated with some darkening of the product, as typically observed with electron-rich phenols, but it is not associated with significant loss of activity (on arteries).

microsomal FolDH = test: Recognition by microsomal FolDH; format: in vitro ADME
[6] = target: T4, neuronal voltage-gated, L-type (Cav1.3) α1D subunit Ca^2+ channel; conditions: PC12 cells; cited from earlier work
ADH [7] = conditions: cited from earlier work
[8] = target: T5, N-type Ca^2+ channel (α1B subunit) (Homo sapiens, UniProt Q00975); test: Patch-clamp on HEK cells transfected with human α1B (Cav2.2) subunits; format: cell-based; conditions: at 5 min; Hp=−100 mV; 20 mM Ba^2+
T5 construct: expressed in transfected cells; host or cells: HEK cells
Method: FIGS. 4A and 4B show neuronal (α1D subunit) L-type Ca^2+ channel (Ca^2+ signaling in fura-2 loaded PC12 cells) (FIG. 4A); on neuronal (α1B subunit) N-type Ca^2+ channel (α1B-transfected HEK cells; as in Roullet, 1999) (FIG. 4B). Current-voltage relationship (IV) recording conditions were: holding potential (hp)=−100 mV; 20 mM Ba^2+. Inhibition of N-type currents was ˜90% at 5 min.
Experiments (FIG. 4) using patch-clamp techniques and HEK cells transfected with human α1B (Cav2.2) subunits further indicate that, like farnesol, retinol also blocks N-type calcium channels. FIGS. 4A and 4B show, according to preferred aspects of the present invention, the effect of all-trans retinol on: neuronal (α1D subunit) L-type Ca^2+ channel (Ca^2+ signaling in fura-2 loaded PC12 cells) (FIG. 4A); an on neuronal (α1B subunit) N-type Ca^2+ channel (α1B-transfected HEK cells; as in Roullet, 1999) (FIG. 4B). IV recording conditions were: Hp=−100 mV; 20 mM Ba^2+. Inhibition of N-type currents was ˜90% at 5 min.

[9] = target: T6, voltage-gated L-type Ca^2+ channels (Homo sapiens, UniProt Q13936); conditions: cited from earlier work
T6 construct: host or cells: arteries / vascular smooth muscle cells

T3 sequence (Q01815 whole entry): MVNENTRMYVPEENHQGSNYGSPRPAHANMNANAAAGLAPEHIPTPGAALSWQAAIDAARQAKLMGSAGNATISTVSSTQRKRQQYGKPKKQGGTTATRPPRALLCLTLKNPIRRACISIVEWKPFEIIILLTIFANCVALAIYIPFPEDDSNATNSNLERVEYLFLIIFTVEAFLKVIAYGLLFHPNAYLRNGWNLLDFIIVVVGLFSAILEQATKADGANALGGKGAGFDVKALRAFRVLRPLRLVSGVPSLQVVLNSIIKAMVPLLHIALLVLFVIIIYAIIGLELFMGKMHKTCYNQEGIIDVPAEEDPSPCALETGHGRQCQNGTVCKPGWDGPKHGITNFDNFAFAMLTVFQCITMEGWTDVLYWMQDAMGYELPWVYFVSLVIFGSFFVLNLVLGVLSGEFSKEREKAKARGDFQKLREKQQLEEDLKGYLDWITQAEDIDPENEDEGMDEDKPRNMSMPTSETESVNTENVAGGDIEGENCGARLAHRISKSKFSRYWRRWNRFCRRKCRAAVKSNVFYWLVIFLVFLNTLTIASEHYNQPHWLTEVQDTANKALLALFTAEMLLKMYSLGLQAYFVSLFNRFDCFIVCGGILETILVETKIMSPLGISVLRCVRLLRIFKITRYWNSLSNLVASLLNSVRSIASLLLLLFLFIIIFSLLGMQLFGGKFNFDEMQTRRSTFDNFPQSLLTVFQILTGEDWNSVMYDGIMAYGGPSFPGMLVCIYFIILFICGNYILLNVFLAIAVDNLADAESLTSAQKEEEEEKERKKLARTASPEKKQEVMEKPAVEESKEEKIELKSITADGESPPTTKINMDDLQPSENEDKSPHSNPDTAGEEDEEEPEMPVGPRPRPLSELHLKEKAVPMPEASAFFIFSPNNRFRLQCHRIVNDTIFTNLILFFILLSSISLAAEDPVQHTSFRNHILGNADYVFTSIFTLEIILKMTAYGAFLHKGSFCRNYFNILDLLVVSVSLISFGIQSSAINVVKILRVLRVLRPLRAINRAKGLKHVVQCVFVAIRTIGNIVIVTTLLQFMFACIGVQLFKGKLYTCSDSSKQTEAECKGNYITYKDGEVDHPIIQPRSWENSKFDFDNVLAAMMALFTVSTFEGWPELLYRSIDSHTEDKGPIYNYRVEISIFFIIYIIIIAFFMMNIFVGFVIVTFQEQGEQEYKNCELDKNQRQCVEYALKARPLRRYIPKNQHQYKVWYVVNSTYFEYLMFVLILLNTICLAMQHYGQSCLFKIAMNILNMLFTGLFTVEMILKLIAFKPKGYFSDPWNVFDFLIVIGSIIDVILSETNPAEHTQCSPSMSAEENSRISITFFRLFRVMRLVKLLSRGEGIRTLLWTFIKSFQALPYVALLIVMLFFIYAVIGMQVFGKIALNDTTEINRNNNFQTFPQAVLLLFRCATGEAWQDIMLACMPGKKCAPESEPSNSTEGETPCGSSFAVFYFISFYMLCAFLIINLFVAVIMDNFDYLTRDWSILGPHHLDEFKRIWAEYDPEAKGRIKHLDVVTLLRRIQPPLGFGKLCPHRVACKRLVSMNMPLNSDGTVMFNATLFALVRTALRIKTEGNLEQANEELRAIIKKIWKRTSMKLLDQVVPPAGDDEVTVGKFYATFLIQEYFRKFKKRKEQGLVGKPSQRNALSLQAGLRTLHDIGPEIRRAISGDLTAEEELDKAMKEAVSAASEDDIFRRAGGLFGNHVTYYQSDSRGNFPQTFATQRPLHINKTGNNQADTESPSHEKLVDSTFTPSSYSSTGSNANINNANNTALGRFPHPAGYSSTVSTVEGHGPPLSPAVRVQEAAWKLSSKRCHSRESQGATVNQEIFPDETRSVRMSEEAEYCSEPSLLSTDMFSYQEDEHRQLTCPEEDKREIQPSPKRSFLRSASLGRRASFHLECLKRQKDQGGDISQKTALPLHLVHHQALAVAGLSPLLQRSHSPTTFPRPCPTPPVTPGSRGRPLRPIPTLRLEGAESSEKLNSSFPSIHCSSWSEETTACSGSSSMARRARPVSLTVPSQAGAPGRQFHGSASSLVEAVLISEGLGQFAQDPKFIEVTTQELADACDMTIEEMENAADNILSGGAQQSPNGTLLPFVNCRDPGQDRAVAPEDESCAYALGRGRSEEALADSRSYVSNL
T3 sequence (P54285 whole entry partner): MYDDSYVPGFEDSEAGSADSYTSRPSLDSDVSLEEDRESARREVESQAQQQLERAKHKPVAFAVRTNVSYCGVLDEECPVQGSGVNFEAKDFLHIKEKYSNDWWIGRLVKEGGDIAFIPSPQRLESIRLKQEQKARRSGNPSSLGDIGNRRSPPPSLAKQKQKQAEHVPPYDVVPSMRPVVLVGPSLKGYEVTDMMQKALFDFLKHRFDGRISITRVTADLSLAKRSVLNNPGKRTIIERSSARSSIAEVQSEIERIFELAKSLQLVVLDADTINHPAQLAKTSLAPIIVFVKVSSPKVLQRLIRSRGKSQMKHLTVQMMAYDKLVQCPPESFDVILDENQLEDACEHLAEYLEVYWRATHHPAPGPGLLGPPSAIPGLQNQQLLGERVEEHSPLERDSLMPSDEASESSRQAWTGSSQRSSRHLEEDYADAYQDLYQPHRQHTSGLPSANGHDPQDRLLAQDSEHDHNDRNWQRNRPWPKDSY
T3 sequence (O08532 25-956 partner limits assumed): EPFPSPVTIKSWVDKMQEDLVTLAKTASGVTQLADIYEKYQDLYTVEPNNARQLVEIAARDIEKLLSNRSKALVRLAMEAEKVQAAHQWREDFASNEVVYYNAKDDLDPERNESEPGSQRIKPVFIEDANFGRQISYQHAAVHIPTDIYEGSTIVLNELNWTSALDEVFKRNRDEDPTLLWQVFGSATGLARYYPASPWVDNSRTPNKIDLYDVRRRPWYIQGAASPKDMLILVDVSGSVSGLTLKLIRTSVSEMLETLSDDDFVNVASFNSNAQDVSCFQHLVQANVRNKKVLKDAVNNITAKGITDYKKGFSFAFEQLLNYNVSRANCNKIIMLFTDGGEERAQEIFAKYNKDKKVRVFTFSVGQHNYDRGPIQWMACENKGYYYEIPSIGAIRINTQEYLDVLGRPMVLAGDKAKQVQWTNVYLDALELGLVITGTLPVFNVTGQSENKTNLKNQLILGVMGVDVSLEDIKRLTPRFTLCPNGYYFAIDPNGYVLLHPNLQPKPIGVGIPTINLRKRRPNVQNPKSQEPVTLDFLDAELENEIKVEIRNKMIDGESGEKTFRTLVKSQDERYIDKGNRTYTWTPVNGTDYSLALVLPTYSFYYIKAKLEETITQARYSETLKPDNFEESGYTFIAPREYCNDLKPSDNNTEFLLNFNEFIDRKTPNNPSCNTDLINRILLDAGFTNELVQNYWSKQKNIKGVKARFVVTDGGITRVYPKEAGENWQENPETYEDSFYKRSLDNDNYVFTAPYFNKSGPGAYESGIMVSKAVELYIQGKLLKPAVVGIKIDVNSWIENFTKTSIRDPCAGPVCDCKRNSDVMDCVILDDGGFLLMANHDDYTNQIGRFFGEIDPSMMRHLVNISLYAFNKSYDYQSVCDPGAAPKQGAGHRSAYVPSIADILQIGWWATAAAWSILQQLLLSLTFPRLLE
T3 sequence (O08532 957-1103 partner limits assumed): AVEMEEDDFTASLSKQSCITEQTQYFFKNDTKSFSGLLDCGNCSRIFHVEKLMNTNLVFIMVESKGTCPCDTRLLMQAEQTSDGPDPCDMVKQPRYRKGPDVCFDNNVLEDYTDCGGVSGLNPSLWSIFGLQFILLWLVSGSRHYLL
T2 sequence (Q01815 whole entry): as the sequence (Q01815 whole entry) above
T2 sequence (P54285 whole entry partner): as the sequence (P54285 whole entry partner) above
T2 sequence (O08532 25-956 partner limits assumed): as the sequence (O08532 25-956 partner limits assumed) above
T2 sequence (O08532 957-1103 partner limits assumed): as the sequence (O08532 957-1103 partner limits assumed) above

Compound | substrate for monoamine oxidase [1] | activity on KCl-induced arterial contraction [2] | reversibility of effect compared with farnesol (L-type Ca^2+ channel) | inhibition at 25 µM (L-type Ca^2+ channel; 25 μM, 30 min incubation, 60-min. wash-out, read-out: inhibition of arterial contraction still observed after wash-out) | Predicted anti-seizure activity: long-acting (la) [3] | substrate for ADH (ADH [4]) | activity on neuronal L-type Ca^2+ channels compared with all-trans farnesol ([5]; non-NGF PC12 cells, fura-2, FIG. 1 / FIG. 3) | storage stability (Storage stability) | recognition by microsomal FolDH (microsomal FolDH) | activity on neuronal L-type Ca^2+ channels (literature / prior studies) [6] | metabolism by class IV ADH (ADH [7]) | Inhibition of N-type currents [8] | IC50 ([5]; read-out: IC50 on L-type Ca^2+ channels) | Predicted anti-seizure activity ([3]; based on effect on L-type Ca^2+ channels, CLogP and reversibility or ADH-FolDH recognition) | activity on Ca^2+ channels / smooth muscle L-type channels (literature / prior studies) [9]
CC(C)=CCC/C(C)=C/CC/C(C)=C/CN [Farnesylamine, (2E,6E)-3,7,11-trimethyldodeca-2,6,10-trien-1-amine] | specific substrate for monoamine oxidase A | more potent inhibitor of arterial contractions than farnesol | relatively less reversible | ~80% | la | – | – | – | – | – | – | – | – | – | –
CC(C)=CCC/C(C)=C/COc1cccc(O)c1 [Geranylresorcinol, (E)-3-(3,7-dimethylocta-2,6-dienyloxy)phenol] | – | strongly inhibits | less reversible | – | la | very poor substrate for ADH | strongly inhibits | stable | not recognized by microsomal FolDH | – | – | – | – | – | –
CC1=C(/C=C/C(C)=C/C=C/C(C)=C/CO)C(C)(C)CCC1 [Retinol, (2E,4E,6E,8E)-3,7-dimethyl-9-(2,6,6-trimethylcyclohex-1-enyl)nona-2,4,6,8-tetraen-1-ol] | – | – | significantly less reversible | – | la | – | – | – | – | blocks efficiently | metabolized by class IV ADH | ~90% | 5 µM | ++ | blocks efficiently
